Source: patent publication US12514834B2, “Pharmaceutical composition for treating and/or preventing renal cystic ciliopathy” (Kyoto University, priority 2022, dated 2026)

Experiments:
[1] = tested on: cysts of collecting duct organoids from PKD1 knockout iPS cells (1383D2 cell line); test: Cyst enlargement inhibition in cysts from artificial collecting duct organoids induced from PKD1 knockout iPS cells; format: cell-based, human; conditions: 0.1 μM compound, with 2.5 μM AVP, 3 days of culturing, vs 0.1% DMSO; FIGS. 1-5
Procedure: Using PKD1 knockout iPS cells of the 1383D2 cell line, artificial collecting duct organoids with cystic structures were induced by the above method. The following protocol was used to examine compounds that inhibit cyst enlargement. • 1. Organoids in which cyst formation was occurring were collected in tubes. • 2. Medium was removed and 2 ml of Cell Recovery Solution was added. (4° C., 30 minutes) • 3. Gel was dissolved by gentle pipetting with a P-1000 pipetteman and then centrifuged. (500 g, 2 minutes) • 4. After removing the supernatant from 3 and adding 5 ml of FBS-containing medium (STO medium), cysts were separated from the organoids by pipetting. • 5. Using a stereomicroscope, cysts were collected in 15 ml tubes. • 6. The supernatant was removed, and then 2 ml of Accutase was added to perform treatment at 37° C. for 5 minutes. • 7. Cells were dissociated down to single cells by pipetting with a P-1000 pipetteman. • 8. After filtering, cells were counted. • 9. After cell counting, a cell suspension containing the required number of cells was transferred to a tube, and then 5 ml of FBS-containing medium (STO medium) was added to stop the Accutase reaction. To seed at 5×10^4 cells/well, the amount of the cell suspension required was calculated. • 10. Pellets were prepared by centrifugation (200 g, 5 minutes). • 11. The supernatant was thoroughly removed, and then DMEM/F12+B27 w/o V.A. medium (10% Afamin/Wnt3a CM, 200 ng/ml R-Spondin 1, 200 ng/ml FGF1, 10 μM Forskolin, 2.5 μM AVP, 10 μM Y27632) was added for suspension. To seed at 5×10^4 cells/well, the amount of medium required was calculated. • 12. The cell suspension from 11 was seeded at 5×10^4 cells/well into pre-prepared 50% Matrigel plates. The cell suspension was added slowly to avoid disrupting the Matrigel. • 13. […] Nine (9) locations inside the wells were photographed using a 4× objective lens under a fluorescence microscope (Keyence, BZ-X700), the cyst area was measured using a BZ-X Analyzer, and then the average value was calculated.
Cyst enlargement-inhibiting compounds to be evaluated in step 14 were added. […]

[2] = tested on: Pkd1flox/flox:Ksp-Cre mice (ADPKD model); test: ATRA treatment of ADPKD model mice; format: in vivo, mouse
Description: Pkd1^flox/flox:Ksp-cre mice, which are ADPKD model mice, develop numerous cysts progressively after birth and die at approximately 14 days of age due to renal failure.
Mouse lineages were maintained with heterozygous Pkd1^flox/+:Ksp-Cre mice, and Pkd1^flox/flox:Ksp-cre mice were generated by mating mice of the same lineage.
On postnatal day 3, Pkd1^flox/flox:Ksp-cre mice (Cystic) and Pkd1^flox/+:Ksp-Cre mice (Non-cystic) were intraperitoneally administered with ATRA (Sigma, #R2625) dissolved in sunflower oil containing 2% DMSO (solvent) to achieve a dose of 10 mg/kg. A group of mice administered with only the solvent intraperitoneally was served as a negative control. Mice were euthanized on postnatal day 9, and renal tissues and blood samples were collected.
BUN in mouse serum was measured using an UN-L kit (Serotec, #A667-00).
Kidneys were fixed in 4% paraformaldehyde solution, and 4 μm-thick paraffin sections were prepared. After deparaffinization, HE staining was performed and renal tissues were photographed under an optical microscope. Cystic index was calculated by total cystic area/total renal tissue area×100 using image analysis and measurement software (WinROOF, Mitani Corporation).
Therapeutic effects of ATRA on ADPKD model mice Since ATRA has already been used as a therapeutic agent for Acute Promyelocytic Leukemia (APL) patients, the efficacy of ATRA in ADPKD model mice was examined from a drug repositioning perspective. To reflect the in vitro results of ATRA on collecting duct cyst enlargement in in vivo, Pkd1^flox/flox:Ksp-Cre mice, in which the Pkd1 allele is conditionally inactivated under expression of kidney-specific Ksp-Cre recombinase in the distal nephron segments and collecting ducts, were used. The mice develop renal failure from birth due to progressive cyst formation and die about 2 weeks after birth. Because Ksp cadherin is specifically expressed in the collecting ducts and distal tubules, cysts originating from the collecting ducts and distal tubules are formed in these ADPKD model mice. ATRA was administered at 10 mg/kg intraperitoneally to mice on postnatal day 3 (P3), and mice were then sacrificed at P9 (FIG. 12).

[3] = tested on: cyst cells from PKD1 knockout iPS cell-derived collecting duct organoids; test: Microarray comparison of gene expression in cyst cells cultured with and without TTNPB (GSEA, heat maps); format: cell-based, human; conditions: 0.1 μM TTNPB, cysts on day 5 of culture
Procedure: For comprehensive profiling of transcripts encoding human proteins, microarray analysis was performed at Filgen using the Human 8×60K LncRNA expression array (ArrayStar). Labeling of samples and array hybridization were performed according to the Agilent One-Color Microarray-Based Gene Expression Analysis protocol (Agilent Technology). Data were collected using Agilent's Feature Extraction software. Raw signal intensities were normalized using the quantile normalization method of GeneSpring GX v12.1.
To clarify the mechanism of action of TTNPB, gene expression in cyst cells cultured with and without TTNPB was compared by microarray (FIGS. 6 and 7).

[4] = 10 mg/kg intraperitoneally on P3, P9, FIG. 14

| Compound | cyst size (cyst area) [1] | cyst formation on the cortical side (HE-stained renal tissue sections) [2, 4] | kidney size (HE-stained renal tissue sections) [2, 4] | ratio of kidney weights to body weight (2KW/BW) ([2]; 10 mg/kg intraperitoneally on P3, P9, vs solvent, FIG. 13) | cystic index (proportion of the area occupied by cysts in the renal tissue) ([2]; 10 mg/kg intraperitoneally on P3, P9, vs solvent, FIG. 15) | body weight ([2]; 10 mg/kg intraperitoneally on P3, sacrificed at P9, FIG. 12) | BUN (blood urea nitrogen) levels ([2]; 10 mg/kg intraperitoneally on P3, serum at P9, vs control mice treated with solvent, FIG. 16) | TGFβ signaling pathway (GSEA) ([3]; FIG. 8) | expression levels of MMP1, SLC2A1, CFTR, and HMGCR ([3]; heat map FIG. 9) | expression of cellular senescence marker genes such as CDKN2B (p15) ([3]; heat map FIG. 10) |
| --- | --- | --- | --- | --- | --- | --- | --- | --- | --- | --- |
| CC1(C)CCC(C)(C)c2cc(NC(=O)c3ccc(C(=O)O)cc3)ccc21 [AM80, tamibarotene] | significantly reduced the cyst sizes |  |  |  |  |  |  |  |  |  |
| CC1=C(/C=C/C(C)=C/C=C/C(C)=C/C(=O)O)C(C)(C)CCC1 [ATRA, all-trans retinoic acid] | reduced the cyst sizes | tended to inhibit cyst formation on the cortical side | suppressed the increase in kidney size | significantly decreased | significantly reduced | No significant body weight loss | significantly lower |  |  |  |
| C/C(=C\c1ccc(C(=O)O)cc1)c1ccc2c(c1)C(C)(C)CCC2(C)C [TTNPB, 4-[(E)-2-(5,6,7,8-tetrahydro-5,5,8,8-tetramethyl-2-naphthalenyl)-1-propenyl]benzoic acid] | significant reduction in cyst size |  |  |  |  |  |  | inhibited | decreased | promotes the expression |
